From the supplement of paper PMC10307832

What was measured:
Test in all cases: relative viability (nuclei count vs DMSO), 5 days (fraction); higher = more cells survive
[1] = compound: Cc1ccc2nc(NCCN)c3ncc(C)n3c2c1 + CC1(C)CCC(c2ccc(Cl)cc2)=C(CN2CCN(c3ccc(C(=O)NS(=O)(=O)c4ccc(N[C@H](CCN5CCOCC5)CSc5ccccc5)c(S(=O)(=O)C(F)(F)F)c4)cc3)CC2)C1 [Navitoclax] (partner 0.5 µM)
In short: (§1)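 Lung cancer cell lines in 1536-well plates got either a single drug or a fixed anchor-drug dose together with five library-drug doses (not always all listed) in √10 steps, by pin tool, on the day after seeding. Nuclei were counted after 5 days, and relative viability is the treated-to-vehicle ratio of nuclei counts. Values are medians of duplicate plates.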

[2] = compound: Cc1ccc2nc(NCCN)c3ncc(C)n3c2c1 + COc1cc2c(Oc3ccc(NC(=O)C4(C(=O)Nc5ccc(F)cc5)CC4)cc3F)ccnc2cc1OCCCN1CCOCC1 [Foretinib] (partner 0.25 µM)
In short: as §1

Salubrinal = compound: O=C(/C=C/c1ccccc1)NC(NC(=S)Nc1cccc2cccnc12)C(Cl)(Cl)Cl [Salubrinal]
In short: (§2)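 Five library-drug doses spaced by √10 were pinned onto vehicle-anchored 1536-well plates of lung cancer cell lines that had been kept overnight at 37 °C. Cells went 5 days without medium change, then were fixed, permeabilised and Hoechst-stained together, imaged at 4× and counted by MetaXpress. Viability is the ratio of treated-well to vehicle-well nuclei, taken as a median over plates. Plates required control CV below 25% and at least one doubling.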

[3] = compound: Cc1ccc2nc(NCCN)c3ncc(C)n3c2c1
In short: as §2

Cell Line | relative viability ([1]; first compound 0.04 µM) | relative viability ([1]; first compound 0.1265 µM) | relative viability ([1]; first compound 0.4 µM) | relative viability ([1]; first compound 1.265 µM) | relative viability ([1]; first compound 4 µM) | relative viability ([2]; first compound 0.04 µM) | relative viability ([2]; first compound 0.1265 µM) | relative viability ([2]; first compound 0.4 µM) | relative viability ([2]; first compound 1.265 µM) | relative viability ([2]; first compound 4 µM) | relative viability (Salubrinal; 0.08 µM) | relative viability (Salubrinal; 0.253 µM) | relative viability (Salubrinal; 0.8 µM) | relative viability (Salubrinal; 2.53 µM) | relative viability (Salubrinal; 8 µM) | relative viability ([3]; 0.04 µM) | relative viability ([3]; 0.1265 µM) | relative viability ([3]; 0.4 µM) | relative viability ([3]; 1.265 µM) | relative viability ([3]; 4 µM)
NCI-H1944 | 1.11 | 1.01 | 1.04 | 1.06 | 1.03 | 0.896 | 0.862 | 0.773 | 0.9 | 0.958 | 1.11 | 1.01 | 0.975 | 0.962 | 1 | 0.985 | 0.96 | 0.784 | 1.05 | 0.941
EPLC-272H | 1.01 | 1.09 | 1.17 | 1.04 | 0.93 | 0.664 | 0.809 | 0.64 | 0.75 | 0.692 | 0.917 | 0.884 | 1.07 | 0.98 | 0.765 | 1.01 | 1.13 | 0.992 | 1 | 0.835
EBC-1 | 0.388 | 0.393 | 0.327 | 0.334 | 0.191 | 0.0984 | 0.102 | 0.098 | 0.0921 | 0.0989 | 1.02 | 0.923 | 1.12 | 0.887 | 0.902 | 1.08 | 0.976 | 0.934 | 0.946 | 0.79
NCI-H1915 | 0.793 | – | 0.781 | 0.774 | 0.766 | 1.11 | 1.06 | – | 1.12 | 1.03 | 0.973 | 0.856 | 1.12 | 1.01 | 0.973 | 0.958 | 0.998 | 0.705 | 0.93 | 0.954
NCI-H596 | 0.945 | 0.896 | 0.916 | 0.678 | 1.11 | 0.811 | 0.81 | 0.912 | 0.889 | 0.7 | 1.08 | 0.89 | 1.01 | 0.896 | 0.982 | 0.952 | 0.934 | 1.02 | 0.937 | 0.909
NCI-H322M | 1.15 | 1.16 | 1.19 | 1.25 | 1.22 | 0.995 | 0.874 | 0.969 | 1.04 | 1.15 | 1.01 | 0.869 | 0.963 | 0.988 | 0.811 | 0.983 | 0.915 | 0.988 | 0.987 | 0.996
NCI-H1299 | 1.02 | 1.04 | 1.06 | 1.02 | 0.898 | 1.12 | 1.14 | 1.09 | 1.05 | 1 | 1.03 | 1.06 | 1 | 0.996 | 0.987 | 1.01 | 0.986 | 0.969 | 0.972 | 0.928
NCI-H2228 | 0.794 | 0.843 | 0.702 | 0.732 | 0.674 | 0.896 | 0.764 | 0.829 | 0.798 | 0.749 | 1.23 | 0.757 | 1.21 | 1.04 | 0.968 | 1.15 | 0.992 | 1.03 | 0.915 | 0.838
IA-LM | 0.792 | 0.779 | 0.707 | 0.623 | 0.587 | 1.19 | 1.25 | 1.07 | 1.16 | 0.928 | 0.983 | 0.9 | 1.15 | 0.903 | 0.922 | 0.989 | 0.984 | 0.761 | 0.756 | 0.743
NCI-H647 | 1.08 | 1.06 | 1.17 | 0.804 | 0.908 | 1.06 | 1.18 | 1.23 | 1.15 | 0.912 | 1.18 | 0.98 | 1.11 | 0.964 | 0.884 | 1.13 | 0.993 | 0.934 | 0.865 | 0.741
NCI-H2170 | 0.687 | 0.659 | 0.59 | 0.601 | 0.598 | 1.05 | 0.981 | 0.975 | 1.03 | 1.02 | 1.21 | 0.984 | 1.04 | 0.996 | 0.935 | 0.961 | 0.976 | 0.995 | 0.887 | 0.978
NCI-H1793 | 0.467 | 0.417 | 0.418 | 0.477 | 0.476 | 0.79 | 0.68 | 0.672 | 0.615 | 0.748 | 1.14 | 1.01 | 0.938 | 1.04 | 0.823 | 0.954 | 0.946 | 0.78 | 0.878 | 0.882
NCI-H2085 | 1.27 | 1.12 | 1.08 | 1.06 | 1.08 | 0.903 | 1.14 | 0.941 | 0.929 | 0.946 | 1.08 | 0.976 | 1.02 | 0.947 | 1.01 | 1.03 | 1 | 0.982 | 1.04 | 1.01
SW 1573 | 1.07 | 0.938 | 1.16 | 1.1 | 0.689 | 1.02 | 0.966 | 1.09 | 0.945 | 0.859 | 1.07 | 1.05 | 1.03 | 0.998 | 0.994 | 0.989 | 1.02 | 1 | 1.05 | 0.776
NCI-H727 | 0.379 | 0.475 | 0.41 | 0.238 | 0.413 | 1.23 | 0.778 | 0.894 | 0.911 | 1.18 | 1.01 | 1.45 | 1.11 | 0.827 | 0.797 | 0.969 | 0.734 | 1.14 | 0.949 | 0.994
